Measurements published in publication PMC4410475, “Discovery and anti-cancer evaluation of two novel non-ATP-competitive FGFR1 inhibitors in non-small-cell lung cancer” (BMC Cancer, 2015).

How the values were obtained:
Type in all cases: biochemical
[1] = molecular target: T1, FGFR1 (Homo sapiens, UniProt P11362); assay: Caliper mobility shift kinase assay with recombinant FGFR1, ATP at Km ([…])
[2] = molecular target: FGFR3 (Homo sapiens, UniProt P22607); assay: cell-free kinase assay (authors' own, called previous); settings: cited from earlier work
Chain of FGFR3 (P22607 23-806): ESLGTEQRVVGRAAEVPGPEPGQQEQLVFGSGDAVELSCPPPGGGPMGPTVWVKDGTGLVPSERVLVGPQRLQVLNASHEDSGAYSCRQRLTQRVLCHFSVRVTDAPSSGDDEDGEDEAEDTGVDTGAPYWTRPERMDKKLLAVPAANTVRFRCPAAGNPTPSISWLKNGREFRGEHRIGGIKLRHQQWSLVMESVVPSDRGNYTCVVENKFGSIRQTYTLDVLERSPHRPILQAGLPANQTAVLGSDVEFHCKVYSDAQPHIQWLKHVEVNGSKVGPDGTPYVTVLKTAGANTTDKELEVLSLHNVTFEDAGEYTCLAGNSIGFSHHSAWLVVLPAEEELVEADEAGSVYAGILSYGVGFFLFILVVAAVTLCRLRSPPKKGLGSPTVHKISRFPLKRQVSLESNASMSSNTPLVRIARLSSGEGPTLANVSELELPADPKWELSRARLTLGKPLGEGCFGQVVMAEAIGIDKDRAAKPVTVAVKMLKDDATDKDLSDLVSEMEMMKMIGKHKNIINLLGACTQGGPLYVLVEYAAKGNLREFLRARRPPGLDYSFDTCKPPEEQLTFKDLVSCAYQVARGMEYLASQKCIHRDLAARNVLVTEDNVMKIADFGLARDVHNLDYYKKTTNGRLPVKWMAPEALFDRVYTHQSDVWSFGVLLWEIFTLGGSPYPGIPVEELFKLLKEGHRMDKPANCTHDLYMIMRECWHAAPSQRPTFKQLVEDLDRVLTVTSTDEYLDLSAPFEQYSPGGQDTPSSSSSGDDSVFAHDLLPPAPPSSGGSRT

[3] = molecular target: T1, FGFR1; assay: Caliper mobility shift kinase assay with recombinant FGFR1, also at varied ATP concentrations

T1 sequence (P11362 22-822): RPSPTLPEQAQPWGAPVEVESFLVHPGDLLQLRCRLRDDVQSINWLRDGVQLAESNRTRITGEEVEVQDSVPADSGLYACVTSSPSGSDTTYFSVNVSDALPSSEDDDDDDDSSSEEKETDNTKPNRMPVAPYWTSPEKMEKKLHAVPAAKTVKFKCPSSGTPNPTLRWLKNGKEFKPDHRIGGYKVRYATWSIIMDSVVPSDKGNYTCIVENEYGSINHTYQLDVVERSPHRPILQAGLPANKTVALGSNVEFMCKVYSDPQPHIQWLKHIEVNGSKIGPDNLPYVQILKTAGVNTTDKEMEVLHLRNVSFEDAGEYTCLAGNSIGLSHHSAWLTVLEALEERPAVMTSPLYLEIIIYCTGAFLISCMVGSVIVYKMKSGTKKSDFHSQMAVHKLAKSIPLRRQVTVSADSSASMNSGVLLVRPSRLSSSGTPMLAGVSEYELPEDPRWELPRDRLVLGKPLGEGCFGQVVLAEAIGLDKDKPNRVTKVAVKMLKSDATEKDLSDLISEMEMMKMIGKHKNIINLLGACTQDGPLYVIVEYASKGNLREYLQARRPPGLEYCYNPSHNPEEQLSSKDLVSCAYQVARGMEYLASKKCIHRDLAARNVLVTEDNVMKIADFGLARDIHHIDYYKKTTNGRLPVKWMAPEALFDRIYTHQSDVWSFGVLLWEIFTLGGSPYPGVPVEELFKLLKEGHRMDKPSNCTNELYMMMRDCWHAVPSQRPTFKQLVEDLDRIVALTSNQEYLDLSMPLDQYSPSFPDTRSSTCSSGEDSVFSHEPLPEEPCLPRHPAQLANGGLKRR

| SMILES | IC50 [1] | IC50 [2] | IC50 [3] |
| --- | --- | --- | --- |
| O=C1/C(=C/c2ccc(O)c(O)c2)COC/C1=C\c1ccc(O)c(O)c1 [Af23, 3,5-bis(3,4-dihydroxybenzylidene)-tetrahydropyran-4-one] | 1.4 µM | – | – |
| CC(Cc1ccc(O)c(O)c1)C(C)Cc1ccc(O)c(O)c1 (stereo not shown) [NDGA, nordihydroguaiaretic acid] | – | 72.4 µM | 24.5 µM |
| O=C1/C(=C/c2ccc(O)c(O)c2)CSC/C1=C\c1ccc(O)c(O)c1 [Ad23, 3,5-bis(3,4-dihydroxybenzylidene)-tetrahydrothiopyran-4-one] | 0.6 µM | – | – |
